Data reported in US5391540A, “Substituted pyridine compounds” (Rohm and Haas Company, priority 1993, dated 1995).

Key:
Assay in all cases: Pre-emergent herbicidal activity (Table A)
Type in all cases: in vivo
[1] = system: Barnyardgrass; conditions: Echinochloa crus-galli, pre-emergence, Bygr, 11.2 kg/ha, 10-14 days, read-out: herbicidal rating (% inhibition)
Outline: (§1)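 Percent inhibition per species, scored on a rating scale, after pre-emergent soil incorporation: test compound in acetone or water carrier mixed into cover soil, layered over seeded topsoil or vegetative propagules.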

[2] = system: Canada thistle; conditions: Cirsium arvense, pre-emergence, Cath, 11.2 kg/ha, 10-14 days, read-out: herbicidal rating (% inhibition)
Outline: as §1

[3] = system: Cocklebur; conditions: Xanthium strumarium, pre-emergence, Cobu, 11.2 kg/ha, 10-14 days, read-out: herbicidal rating (% inhibition)
Outline: as §1

[4] = system: Common Lambsquarters; conditions: Chenopodium album, pre-emergence, Colq, 11.2 kg/ha, 10-14 days, read-out: herbicidal rating (% inhibition)
Outline: as §1

[5] = system: Downy Brome; conditions: Bromus tectorum, pre-emergence, Dobr, 11.2 kg/ha, 10-14 days, read-out: herbicidal rating (% inhibition)
Outline: as §1

[6] = system: Morningglory; conditions: Ipomoea, pre-emergence, Mogl, 11.2 kg/ha, 10-14 days, read-out: herbicidal rating (% inhibition)
Outline: as §1

[7] = system: Pennsylvania Smartweed; conditions: pre-emergence, Pesw, 11.2 kg/ha, 10-14 days, read-out: herbicidal rating (% inhibition)
Outline: as §1

[8] = system: Quackgrass; conditions: pre-emergence, Rhqg, 11.2 kg/ha, 10-14 days, read-out: herbicidal rating (% inhibition)
Outline: as §1

[9] = system: Rhizome Johnsongrass; conditions: Sorghum halepense, pre-emergence, Rhjg, 11.2 kg/ha, 10-14 days, read-out: herbicidal rating (% inhibition)
Outline: as §1

[10] = system: Velvetleaf; conditions: Abutilon theophrasti, pre-emergence, Vele, 11.2 kg/ha, 10-14 days, read-out: herbicidal rating (% inhibition)
Outline: as §1

[11] = system: Yellow Nutsedge; conditions: Cyperus, pre-emergence, Yens, 11.2 kg/ha, 10-14 days, read-out: herbicidal rating (% inhibition)
Outline: as §1

SMILES	inhibition at 11200 g/ha [1] [%]	inhibition at 11200 g/ha [2] [%]	inhibition at 11200 g/ha [3] [%]	inhibition at 11200 g/ha [4] [%]	inhibition at 11200 g/ha [5] [%]	inhibition at 11200 g/ha [6] [%]	inhibition at 11200 g/ha [7] [%]	inhibition at 11200 g/ha [8] [%]	inhibition at 11200 g/ha [9] [%]	inhibition at 11200 g/ha [10] [%]	inhibition at 11200 g/ha [11] [%]
CNC(=O)c1c(C(F)(F)F)nc(OC)c(C(=O)OC)c1CC(C)C [Compound 37, 3-pyridinecarboxylic acid, 2-methoxy-5-[(methylamino)carbonyl]-4-(2-methylpropyl)-6-(trifluoromethyl)-, methyl ester]	0 to 24	0 to 24	0 to 24	75 to 100	0 to 24	0 to 24	0 to 24	0 to 24	0 to 24	0 to 24	0 to 24
COC(=O)c1c(OC)nc(C(F)(F)F)c(C(=O)NCCO)c1CC(C)C [Compound 38, 3-pyridinecarboxylic acid, 5-[[(2-hydroxyethyl)amino]carbonyl]-2-methoxy-4-(2-methylpropyl)-6-(trifluoromethyl)-, methyl ester]	0 to 24	0 to 24	0 to 24	0 to 24	0 to 24	0 to 24	0 to 24	0 to 24	0 to 24	0 to 24	0 to 24
CCOC(=O)c1c(OCC)nc(C(F)(F)F)c(C(=O)OCC)c1CC(C)C [Compound 39, 3,5-pyridinedicarboxylic acid, 2-ethoxy-4-(2-methylpropyl)-6-(trifluoromethyl)-, diethyl ester]	75 to 100	0 to 24	0 to 24	75 to 100	75 to 100	25 to 49	75 to 100	0 to 24	0 to 24	50 to 74	0 to 24
COC(=O)c1c(OC)nc(C(F)(F)F)c(CO)c1CC(C)C [Compound 40, 3-pyridinecarboxylic acid, 5-(hydroxymethyl)-2-methoxy-4-(2-methylpropyl)-6-(trifluoromethyl)-, methyl ester]	75 to 100	0 to 24	0 to 24	75 to 100	75 to 100	0 to 24	75 to 100	75 to 100	0 to 24	25 to 49	0 to 24
CN=C(SC)c1c(C(F)(F)F)nc(OC)c(C(=O)OC)c1CC(C)C [Compound 41, 3-pyridinecarboxylic acid, 2-methoxy-5-[(methylimino)(methylthio)methyl]-4-(2-methylpropyl)-6-(trifluoromethyl)-, methyl ester]	75 to 100	75 to 100	25 to 49	75 to 100	75 to 100	75 to 100	75 to 100	75 to 100	0 to 24	75 to 100	0 to 24
COC(=O)c1c(OC)nc(C(F)(F)F)c(C(=O)n2cccn2)c1CC(C)C [Compound 42, 3-pyridinecarboxylic acid, 2-methoxy-4-(2-methylpropyl)-5-(1H-pyrazo1-1-ylcarbonyl)-6-(trifluoromethyl)-, methyl ester]	75 to 100	75 to 100	75 to 100	75 to 100	75 to 100	75 to 100	75 to 100	75 to 100	50 to 74	75 to 100	50 to 74
